Assay results taken from patent US5559115A, “Oncogene function-inhibitory agent, method for inhibiting oncogene function, and treatment of cancer” (Terumo Kabushiki Kaisha, priority 1993, dated 1996).
Structures can show the parent of a compound that is named as a salt.

Tests used:
K-ras^ts-NRK cells = assay: Action mechanism: morphology / M phase observation in K-ras^ts-NRK cells; type: cell-based, rat; conditions: 33° C., 0.1 μg/ml, after one day
Procedure: Before the addition of the III-121C, the cells grew atop the other and had projections or processes on their surface (FIG. 9(a)).
The procedure as described above was repeated by replacing the III-121C with 0.1 μg/ml of vinblastine, 0.1 μg/ml of vincristine and 0.1 μg/ml of colchicine, which are known as microtubule formation inhibitors.

Ras protein = conditions: cited from earlier work
[1] = Acute toxicity (LD50) on mouse upon intravenous injection; type: in vivo; conditions: in vivo, intravenous injection
Procedure: Toxicity (LD50) on mouse of III-121C upon intravenous injection was measured.

K-ras-NRK cells = assay: Action mechanism: flow-cytometric DNA content analysis of K-ras-NRK cells; type: cell-based, rat; conditions: 24 hours; III-121C 0.3 and 1 μg/ml, vinblastine 0.1 μg/ml (FIG. 11)
Procedure: FIGS. 11(a) to (d) are graphs showing the results of flow-cytometric analysis wherein the number of cells is depicted in relation to their DNA content, upon addition of no reagent (FIG. 11(a)), 0.3 μg/ml of III-121C (FIG. 11(b)), 1 μg/ml of III-121C (FIG. 11(c)), and 0.1 μg/ml of vinblastine (FIG. 11(d)) to the K-ras NRK cell culture.
To the cells of K-ras-NRK in their propagation was added either one of III-121C and vinblastine. No reagent was added to the control cells. After 24 hours from the addition, the cells were fractionated with a cell sorter to examine the DNA quantity in relation to the number of the cells.

Structure (SMILES)	number of circular or elongated cells in M phase (K-ras^ts-NRK cells)	LD50 [1] [mg/kg]	other results
COc1cc2c(c(OC)c1OC)-c1ccc(OC)c(=O)cc1[C@@H](NC(C)=O)CC2 [colchicine, reference compound]	a significant increase in the number of circular or elongated cells that are in their M phase of the cell cycle		
CC[C@H](C)C(=O)O[C@H]1CCC=C2C=C[C@H](C)[C@H](CC[C@@H]3C[C@@H](O)CC(=O)O3)[C@H]21 [compactin]			inhibition of the action of the ras oncogene product (Ras protein) (Ras protein): capable of inhibiting the action of the ras oncogene product
Nc1nc2c(ncn2[C@@H]2O[C@H](CO)[C@@H](O)[C@H]2O)c(=O)o1 [oxanosin]			inhibition of the action of the ras oncogene product (Ras protein) (Ras protein): capable of inhibiting the action of the ras oncogene product
CC[C@]1(O)C[C@@H]2CN(CCc3c([nH]c4ccccc34)[C@@](C(=O)OC)(c3cc4c(cc3OC)N(C)[C@H]3[C@@](O)(C(=O)OC)[C@H](OC(C)=O)[C@]5(CC)C=CCN6CC[C@]43[C@@H]65)C2)C1 [vinblastine sulfate, reference compound]		15.2	
CC[C@]1(O)C[C@@H]2CN(CCc3c([nH]c4ccccc34)[C@@](C(=O)OC)(c3cc4c(cc3OC)N(C)[C@H]3[C@@](O)(C(=O)OC)[C@H](OC(C)=O)[C@]5(CC)C=CCN6CC[C@]43[C@@H]65)C2)C1 [vinblastine, reference compound]	a significant increase in the number of circular or elongated cells that are in their M phase of the cell cycle		cell cycle / cell division inhibition (K-ras-NRK cells): inhibition of G2 /M phase in the cell cycle; distribution of DNA quantity in cells (K-ras-NRK cells): an increase in the number of cells having a relatively large quantity of DNA was observed
CC[C@]1(O)C[C@H]2CN(CCc3c([nH]c4ccccc34)[C@@](C(=O)OC)(c3cc4c(cc3OC)N(C=O)[C@H]3[C@@](O)(C(=O)OC)[C@H](OC(C)=O)[C@]5(CC)C=CCN6CC[C@]43[C@@H]65)C2)C1 [vincristine sulfate, reference compound]		2.5	
CC[C@]1(O)C[C@H]2CN(CCc3c([nH]c4ccccc34)[C@@](C(=O)OC)(c3cc4c(cc3OC)N(C=O)[C@H]3[C@@](O)(C(=O)OC)[C@H](OC(C)=O)[C@]5(CC)C=CCN6CC[C@]43[C@@H]65)C2)C1 [vincristine, reference compound]	a significant increase in the number of circular or elongated cells that are in their M phase of the cell cycle		
CC[C@]1(O)C[C@@H]2CN(CCc3c([nH]c4ccccc34)[C@@](C(=O)OC)(c3cc4c(cc3OC)N(C)[C@H]3[C@@](O)(C(N)=O)[C@H](O)[C@]5(CC)C=CCN6CC[C@]43[C@@H]65)C2)C1 [vindecine sulfate, reference compound]		9.1	
